# Measured values as given in patent US12527785B2, “Renin-angiotensin-aldosterone system (RAAS) inhibitors in the treatment of pancreatic ductal carcinoma” (OCHSNER CLINIC FOUNDATION, priority 2023, dated 2026).
# Tested on: PaCa-9 PDAC patient tumor cells
# Experiment: WST1 cell proliferation assay, PaCa-9 PDAC patient tumor cells
# Assay type: cell-based, human
# Conditions: 10% FCS-DMEM
# Description: PDA cell line (PANC-1 or HS766T) or patient cancer cells (PaCa9) were trypsinized with 1% trypsin in Hank's Balanced Salt Solution (HBSS), counted, washed, and resuspended in serum free AIM media (ThermoFisher Scientific, Waltham, MA) or complete Dulbecco's Modified Eagle Medium (DMEM) supplemented with 10% fetal bovine serum, […], 100 U/ml of penicillin G, and […] of streptomycin. Cells at a concentration of 2-4×10^4 cells/well in 100 μl culture medium were seeded in triplicate in 96 well plates, then cultured in a humidified incubator at 37° C. and 5% CO2. On the next day, cell supernatant was discarded and compounds (e.g., drugs) of the present disclosure in 200 μl medium were added with the concentrations indicated in the following Examples. After 72 hours of culture, cell proliferation reagent WST1 (20 μl/well, Sigma Aldrich Inc, St. […] The measured absorbance (OD value) was recorded and graphed and statistically analyzed using GraphPad Prism 8, t-test, or t-test with Bonferroni correction.
compound,measurement,setting,value
COc1ccc2c(c1OCc1ccccc1)C[C@@H](C(=O)O)N(C(=O)C(c1ccccc1)c1ccccc1)C2 [EMA401],"cell proliferation, WST1 absorbance (OD value, 450 nm), mean","EMA 10 μM, Table 3, 1 h, Medium/DMSO 3.571",2.088
same,"cell proliferation, WST1 absorbance (OD value, 450 nm), mean","EMA 10 μM, Table 4, 2 h, Medium/DMSO >3.60",2.910
same,"cell proliferation, WST1 absorbance (OD value, 450 nm), mean","EMA 50 μM, Table 3, 1 h, Medium/DMSO 3.571",2.000
same,"cell proliferation, WST1 absorbance (OD value, 450 nm), mean","EMA 50 μM, Table 4, 2 h, Medium/DMSO >3.60",2.447
same,"cell proliferation, WST1 absorbance (OD value, 450 nm), mean","EMA401 10 μM, Table 7A, 2×10^4 cells per well, control 3.535",3.257
same,"cell proliferation, WST1 absorbance (OD value, 450 nm), mean","EMA401 50 μM, Table 7A, 2×10^4 cells per well, control 3.535",0.541
